System: peroxide produced in rat liver homogenates
Experiment: Antioxidant activity: FeSO4-generated peroxides in rat liver homogenate, thiobarbituric acid reaction
Type: biochemical
Conditions: rat liver homogenate incubated with FeSO4, thiobarbituric acid reaction; read-out: IC50, antioxidant activity (peroxide production)
Experimental: Rat liver homogenates were prepared according to Fraga, C. G. et al. Free Radicals Biol. Med., 4, 155, 1988 and Kornburst D. J. et al. Lipids 15, 315, 1980.
Peroxides were generated by incubation of the homogenate with the FeSO4 as described by Quitanilha A. T. et al. Ann. N.Y., Acad. Sci. 393, 32, 1982.
Compounds to be tested for their antioxidant activity were dissolved in DMSO and added to the incubation mixture. The amount of peroxide produced was determined by the thiobarbituric acid reaction using malonaldehyde as standard.

Compound | IC50 [nM]
CCOP(=O)(OCC)C(=Cc1cc(C(C)(C)C)c(O)c2ccccc12)P(=O)(OCC)OCC [Example 1] | 1500
CC(C)OP(=O)(OC(C)C)C(=Cc1cc(C(C)(C)C)c(O)c2ccccc12)P(=O)(OC(C)C)OC(C)C [Example 2] | 700
CCOP(=O)(OCC)C(=Cc1cc(C(C)(C)C)c(O)c2c1CCCC2)P(=O)(OCC)OCC [Example 6, Tetraethyl 2-(3-tert-butyl-4-hydroxy-5,6,7,8-tetrahydronaphthyl)-ethenylidene-1,1-diphosphonate] | 7000
CC(C)OP(=O)(OC(C)C)C(=Cc1cc(C(C)(C)C)c(O)c2c1CCCC2)P(=O)(OC(C)C)OC(C)C [Example 8, Tetraispropyl 2-[3-tert-butyl-4-hydroxy-5,6,7,8-tetrahydronaphthyl]-ethenylidene-1,1-diphosphonate] | 2500
